Tests used:
Ebola virus = conditions: in vivo; cited from earlier work
in vitro = conditions: human
[1] = human, in vivo; cited from earlier work
EBOV minigenome = format: cell-based, Ebola virus

## CCN(CC)Cc1cc(Nc2ccnc3cc(Cl)ccc23)ccc1O [Amodiaquine, amodiaquine]
Ebola virus
  case mortality: 50%
In vitro
  CC50: 79 µM
Huh7 cells
  Selectivity index: 37

## CCNCc1cc(Nc2ccnc3cc(Cl)ccc23)ccc1O [desethyl-amodiaquine]
[1]
  half-life: 220 to 432 h

## COc1c(C)c2c(c(O)c1C/C=C(\C)CCC(=O)O)C(=O)OC2 [mycophenolic acid]
EBOV minigenome
  activity of EBOV minigenome (firefly luciferase normalized to renilla): effectively blocked the signal from the minigenome

Source: article PMC6374029 (Antiviral Research, 2018)
